Entries after “also recorded” stand apart in the source; their conditions may differ. Residues, ends and D or L forms follow the SMILES beside them.
Assays:
[1] = Evaluation of gelation of lipid peptides with pure water; type: physicochemical
Protocol: Each of the lipid peptides synthesized in Examples 1, 6, 7, 8, and 10 was placed in a sample tube. Pure water (without metals and ions) was added so that a solution would have a lipid peptide concentration of 0.25 or 0.5% (w/v) (w means mass (g), and v means volume (mL)). The mixture was heated at 90° C. or more to dissolve the lipid peptide, and then allowed to cool.

[2] = Evaluation of gelation of lipid peptides with phosphate buffer; type: physicochemical; conditions: for Gel formation: acidic region (pH=2.6)
Protocol: Each of the lipid peptides synthesized in Examples 3 to 10 and Example 14 was placed in a sample tube. Each of three phosphate buffers (PBS) (pH=2.6, 7.4, or 10) was added so that a solution would have a lipid peptide concentration of 0.25 or 0.5% (w/v) (conditions A to F). Then, the mixture was heated at 90° C. or more to dissolve the lipid peptide, and then allowed to cool.

[3] = Evaluation of gelation of N-palmitoyl-Gly-His.TFA salt with various solutions; type: physicochemical
Protocol: Each N-palmitoyl-Gly-His trifluoroacetate synthesized in Examples 1 to 3 was placed in a screw tube (Maruemu No. 1, manufactured by Maruemu Corp.). Each of various solutions shown in Table 3 was added so as to have an N-palmitoyl-Gly-His.TFA salt (also called Pal-GH (TFA)) concentration of 0.5 or 1% (w/v). The mixture was heated at 100° C. with a constant temperature heat block (manufactured by Nippon Genetics Co., Ltd.), and then allowed at room temperature.

[4] = Gel sheet formation and stability of gel on water immersion; type: physicochemical; conditions: 72 hours
Protocol: Into a screw tube (Maruemu No. 3, manufactured by Maruemu Corp.), 3 mg of N-palmitoyl-Gly-His (TFA) prepared in Example 1 was placed, and 0.6 ml of Japanese Pharmacopoeia purified water (Kyoei Pharmaceutical Industries, Ltd.) was added into the screw tube so as to have a concentration of 0.5% (w/v). The whole was heated at 105° C. for 5 minutes, and then allowed to stand at room temperature to prepare a gel of 0.5% N-palmitoyl-Gly-His (TFA).
To the gel, 2 ml of Japanese Pharmacopoeia purified water (Kyoei Pharmaceutical Industries, Ltd.) was further added and sheet formation was observed from a wide view for 72 hours.
Into a screw tube (Maruemu No. 3, manufactured by Maruemu Corp.), 9.1 mg of N-palmitoyl-Gly-His.TFA salt prepared in Example 1 was placed, and 0.91 ml of Japanese Pharmacopoeia purified water (Kyoei Pharmaceutical Industries, Ltd.) and 0.91 ml of glycerin (Junsei Chemical Co., Ltd.) were added into the screw tube so as to have a concentration of 0.5% (w/v). The whole was heated at 105° C. for 5 minutes, and then allowed to stand at room temperature to prepare a gel of 0.5% N-palmitoyl-Gly-His.TFA salt in a glycerin solution.
Into the gel, 2 ml of Japanese Pharmacopoeia purified water (Kyoei Pharmaceutical Industries, Ltd.) was further added and sheet formation was observed from a wide view for 72 hours.
Into a screw tube (Maruemu No. 3, manufactured by Maruemu Corp.), 4.6 mg of N-palmitoyl-Gly-His.TFA salt prepared in Example 1 was placed, and 0.46 ml of glycerin was added into the screw tube so as to have a concentration of 1% (w/v). The whole was heated at 105° C. for 5 minutes, and then allowed to stand at room temperature to prepare a gel of 1% N-palmitoyl-Gly-His.TFA salt in glycerin.
(§1) Each of the 50.4 mg of N-palmitoyl-Gly-His.TFA salt prepared in Examples 1 to 3 was placed into a screw tube (Maruemu No. 7, manufactured by Maruemu Corp.). Into the screw tube, 1 ml of polyethylene glycol 400 (Wako Pure Chemical Industries, Ltd.), 1.5 ml of ethanol, and 8 ml of 70% glycerin (Junsei Chemical Co.) in water were added so as to have an N-palmitoyl-Gly-His TFA salt concentration of 0.5% (w/v). The mixture was heated with a dry bath incubator (manufactured by First Gene) (105° C., for 8 minutes), and then allowed to stand at room temperature to form a gel.
Into the gel, 20 ml of Japanese Pharmacopoeia purified water (Kyoei Pharmaceutical Industries, Ltd.) was further added and whether sheet formation occurred or not was observed from a wide view for 72 hours.
as §1, with “the 52.5” for “the 50.4”, “was added” for “was placed”, “tube, 0.5” for “tube, 1”, “Ltd.), 1” for “Ltd.), 1.5”, “an N-palmitoyl-Gly-His.TFA” for “an N-palmitoyl-Gly-His TFA”
(§2) Each of the 50.2 mg of palmitoyl-Gly-His.TFA salt prepared in Examples 1 to 3 was placed into a screw tube (Maruemu No. 7, manufactured by Maruemu Corp.) together with 104.7 mg of indomethacin and 220 mg of I-menthol. Into the screw tube, 0.5 ml of polyethylene glycol 400 (Wako Pure Chemical Industries, Ltd.), 1.5 ml of ethanol, 8 ml of 70% glycerin (Junsei Chemical Co., Ltd.) in water were added so as to have an N-palmitoyl-Gly-His.TFA salt concentration of 0.5% (w/v). […] The texture of the gel was smooth and cool.
After ascertainment of the gel formation, the gel was allowed to stand at room temperature for 45 days. Then, 20 ml of Japanese Pharmacopoeia purified water (Kyoei Pharmaceutical Industries, Ltd.) was added and sheet formation was observed from a wide view for 72 hours. […]

[5] = Gel formation in glycerin, polyethylene glycol 400 and ethanol medium; type: physicochemical; conditions: 8 ml 70% glycerin in water
Protocol: as §1
as §1, with “the 52.5” for “the 50.4”, “was added” for “was placed”, “tube, 0.5” for “tube, 1”, “Ltd.), 1” for “Ltd.), 1.5”, “an N-palmitoyl-Gly-His.TFA” for “an N-palmitoyl-Gly-His TFA”
as §2

[6] = Usable mediums: solubility and gel formation, conventional art vs palmitoyl-Gly-His; type: physicochemical
[7] = cited from earlier work

Which Gelation ([1]; lipid peptide 0.25% (w/v)) does the source give for `CCCCCCCCCCCCCCCC(=O)NCC(=O)N[C@@H](Cc1c[nH]cn1)C(=O)O.O=C(O)C(F)(F)F` [Example 1, N-palmitoyl-Gly-His.TFA salt] (HELM PEPTIDE1{[CCCCCCCCCCCCCCCC(=O)[*:2]].G.H}$$$$V2.0) here?
The Gelation was “◯”.

What about the Gelation ([1]; lipid peptide 0.50% (w/v)) of the same compound?
Its Gelation is “◯”.

And the “Gel formation” value ([2]; concentration 0.25%)?
The value was “formed gels”.

And the “Gel formation” value ([2]; concentration 0.5%)?
The value was “formed gels”.

And the Gelation ([2]; condition A: phosphate buffer pH = 2.6, 0.5% (w/v))?
The Gelation was “◯”.

What about the Gelation ([2]; condition B: phosphate buffer pH = 2.6, 0.25% (w/v)) of the same compound?
Its Gelation is “◯”.

And the Gelation ([2]; condition C: phosphate buffer pH-7.4, 0.5% (w/v))?
Its Gelation is “◯”.

What about the Gelation ([2]; condition D: phosphate buffer pH-7.4, 0.25% (w/v)) of the same compound?
The Gelation was “◯”.

And the Gelation ([2]; condition E: phosphate buffer pH = 10, 0.5% (w/v))?
Its Gelation is “◯”.

What about the Gel state ([3]; 50% 1,3-butanediol aqueous solution, 0.5% (w/v)) of the same compound?
Its Gel state is “White gel”.

And the Gel state ([3]; 50% glycerin aqueous solution, 0.5% (w/v))?
Its Gel state is “White gel”.

What about the Gel state ([3]; 50% liquid paraffin aqueous solution, 0.5% (w/v)) of the same compound?
Its Gel state is “White gel”.

What about the Gel state ([3]; 50% polyethylene glycol 400 aqueous solution, 0.5% (w/v)) of the same compound?
Its Gel state is “White gel”.

And the Gel state ([3]; 50% propylene glycol aqueous solution, 0.5% (w/v))?
Its Gel state is “White gel”.

What about the Gel state ([3]; 70% glycerin aqueous solution, 0.5% (w/v)) of the same compound?
Its Gel state is “Transparent gel”.

And the Gel state ([3]; Glycerin, 1.0% (w/v))?
The Gel state was “Transparent gel”.

And the Gel state ([3]; Polyethylene glycol 400, 1.0% (w/v))?
Its Gel state is “Transparent gel”.

What about the “Gel behaviour on immersion in purified water, sheet formation” value (“Gel behaviour on immersion” for short) ([4]; 0.5% (w/v) gel in 0.5 ml polyethylene glycol 400, 1 ml ethanol, 8 ml 70% glycerin, 20 ml water added) of the same compound?
The value was “not dissolved during water immersion and the formation of a sheet-shaped gel was observed”.

What about the “Gel behaviour on immersion” value ([4]; 0.5% (w/v) gel in 1 ml polyethylene glycol 400, 1.5 ml ethanol, 8 ml 70% glycerin, 20 ml water added) of the same compound?
Its value is “not dissolved during water immersion and the formation of a sheet-shaped gel was observed”.

And the “Gel behaviour on immersion” value ([4]; 0.5% (w/v) gel in glycerin solution (0.91 ml water + 0.91 ml glycerin), 2 ml water added)?
Its value is “not dissolved during water immersion and the formation of a sheet-shaped gel was observed”.

What about the “Gel behaviour on immersion” value ([4]; 0.5% (w/v) gel in purified water, 2 ml water added) of the same compound?
Its value is “not dissolved during water immersion and the formation of a sheet-shaped gel was observed; also recorded: did not dissolve during water immersion and the formation of a sheet-shaped gel was observed”.

And the “Gel behaviour on immersion” value ([4]; 0.5% (w/v) gel including indomethacin and l-menthol, after 45 days at room temperature, 20 ml water added)?
The value was “not dissolved during water immersion and the formation of a sheet-shaped gel was observed”.

What about the “Gel behaviour on immersion” value ([4]; 1% (w/v) gel in glycerin, 2 ml water added) of the same compound?
Its value is “not dissolved during water immersion and the formation of a sheet-shaped gel was observed”.

What about the Gel formation ([5]; 0.5% (w/v) with 104.7 mg indomethacin and 220 mg l-menthol, 0.5 ml polyethylene glycol 400, 1.5 ml ethanol) of the same compound?
The Gel formation was “pale yellow gel”.

What about the Gel formation ([5]; 0.5% (w/v), 0.5 ml polyethylene glycol 400, 1 ml ethanol) of the same compound?
Its Gel formation is “form a gel”.

And the Gel formation ([5]; 0.5% (w/v), 1 ml polyethylene glycol 400, 1.5 ml ethanol)?
Its Gel formation is “form a gel”.

What does the source list for `CCCCCCCCCCCCCCCC(=O)NCC(=O)NCC(=O)NCC(=O)N[C@@H](Cc1c[nH]cn1)C(=O)O` [palmitoyl-Gly-Gly-Gly-His] (HELM PEPTIDE1{[CCCCCCCCCCCCCCCC(=O)[*:2]].G.G.G.H}$$$$V2.0)?
Solubility in medium ([6]; 50 mM acetate buffer with pH 5, even when heated): insoluble; Solubility in medium ([6]; 50 mM citrate buffer with pH 5, even when heated): insoluble; Gel formation ([6]; ethanol/water mixed solvent having an ethanol concentration of 80% or more): does not form a gel; lowest gelation concentration ([7]; Non-patent Document 10): 0.03 wt %

With `CCCCCCCCCCCCCCCC(=O)NCC(=O)NCC(=O)N[C@@H](Cc1c[nH]cn1)C(=O)O` [palmitoyl-Gly-Gly-His] (HELM PEPTIDE1{[CCCCCCCCCCCCCCCC(=O)[*:2]].G.G.H}$$$$V2.0) as the compound, how does the gelation properties ([7]; background art) read?
Its gelation properties is “has gelation properties”.
